Data reported in ChEMBL document CHEMBL1124082, “Synthesis, intramolecular hydrogen bonding, and biochemical studies of clitocine, a naturally occurring exocyclic amino nucleoside” (J Med Chem, 1988).

Columns and labels:
L1210 = test: In vitro inhibition of L1210 cells; type: functional; conditions: Mus musculus, read-out: ID50 (the source's name)
[1] = Inhibition of growth of human B lymphoblast derived W1-L2 cells; type: functional; conditions: WIL2, read-out: ID50 (the source's name)
Adenosine kinase [2] = biological target: T1, Adenosine kinase (Homo sapiens, UniProt P55263); test: Binding affinity towards adenosine kinase
T1 sequence (P55263 whole entry): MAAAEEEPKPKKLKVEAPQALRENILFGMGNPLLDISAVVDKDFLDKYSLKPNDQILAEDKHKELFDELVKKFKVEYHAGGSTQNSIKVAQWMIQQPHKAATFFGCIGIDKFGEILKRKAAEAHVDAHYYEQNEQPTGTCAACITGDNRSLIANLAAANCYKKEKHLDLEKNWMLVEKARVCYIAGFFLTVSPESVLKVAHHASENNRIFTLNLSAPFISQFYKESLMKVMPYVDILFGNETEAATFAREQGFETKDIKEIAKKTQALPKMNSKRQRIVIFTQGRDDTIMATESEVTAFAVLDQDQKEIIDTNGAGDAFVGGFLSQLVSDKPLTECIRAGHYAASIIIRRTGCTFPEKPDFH

Adenosine kinase [3] = biological target: T1, Adenosine kinase; test: Inhibition of adenosine kinase from undialyzed W1-L2 lysate (0-50 uM)

In the case of Nc1ncnc(N[C@@H]2O[C@H](CO)[C@@H](O)[C@H]2O)c1[N+](=O)[O-], the IC50 (L1210) is reported as 30 nM, the IC50 [1] is reported as 30 nM and the Ki (Adenosine kinase [2]) is reported as 300 nM. The Ki (Adenosine kinase [3]) was 3 µM.
